Laboratory results published in PMC7179205, “An Improved Synthesis of Key Intermediate to the Formation of Selected Indolin-2-Ones Derivatives Incorporating Ultrasound and Deep Eutectic Solvent (DES) Blend of Techniques, for Some Biological Activities and Molecular Docking Studies” (Molecules, 2020).
Entries after “also recorded” stand apart in the source; their conditions may differ. Where two headings read alike, the source gives them in different places.

Experiments:
[1] = test system: Rat Paw Edema; assay: carrageenan-induced hind paw edema method (anti-inflammatory activity); assay type: in vivo, Wistar albino rats; details: for inhibition in vivo at 10 mg/kg: Rattus norvegicus, po; for inhibition in vivo at 10 mg/kg / anti-inflammatory activity (in words) / % Age Inhibition of Rat Paw Edema, 4 H: oral dose 10 mg/kg; for inhibition in vivo at 10 mg/kg / % Age Inhibition of Rat Paw Edema, 4 H: mean ± SEM; for anti-inflammatory activity (in words): compared with standard indomethacin; for Potency (anti-inflammatory): relative to indomethacin = 1.00
Method: The anti-inflammatory activity of the synthesized compounds (4a–n) was evaluated by the carrageenan-induced paw edema method. An oral dose of 10 mg/kg was used for compounds and compared with the standard. Anti-inflammatory activity was accessed through percentage inhibition after 2 and 4 h (Table 1).
Compounds produced were assessed for their anti-inflammatory activity using the carrageenan-induced hind paw edema method. The anti-inflammatory activity was carried out using Wistar albino rats of either sex (150–220 g) using a Digital Plethysmometer (Model No. 7140, UGO BASILE). The edema was induced by using 1% carrageenan solution. Indomethacin was used as a standard drug. The anti-inflammatory activity of the standard drug and tested compounds was determined at a dose of 10 mg/kg body weight. The animals were divided into groups containing six animals each and the initial paw volume of each rat was noted by the NaCl displacement method. One group was kept as control, one as standard, and the rest of the groups of compounds were to be tested. To the control group, 1% CMC solution was administered p.o. To the standard group, the standard drug was administered orally. To the test group, tested compounds were administered orally. After 60 min of the 1% CMC solution/standard drug/test compound administration, 0.1 ml of 1% (w/v) carrageenan was injected in the plantar region of the hind limb (right) of all the rats in each group including the control group. The paw volume was again measured after the time interval of 2 and 4 h. Using the following formula, inflammation was calculated as percentage inhibition for the test and reference compounds
(Final foot volume of control—final foot volume of std./test) × 100 / final foot volume of control)

[2] = test system: acetic acid-induced writhing; assay: acetic acid-induced writhing method (analgesic activity); assay type: in vivo, Swiss albino mice; details: for inhibition in vivo at 10 mg/kg: Mus musculus, read-out: % Analgesic Activity; for Potency (analgesic): relative to indomethacin = 1.00, 10 mg/kg; for Mean with ± SEM: writhes counted for 15 min; for analgesic activity (in words): compared with standard indomethacin
Method: All the tested compounds and standard drugs are evaluated at 10 mg/kg oral dose.
The analgesic activity of the tested compounds was carried out by acetic acid-induced writhing method as given in the literature using Swiss albino mice of either sex (25–35 g). The writh were induced in the albino mice using an intraperitoneal injection of 1% acetic acid solution. The standard drug indomethacin and test compounds were evaluated at a concentration of 10 mg/kg of the body weight. The animals were divided into groups and each group consisted of six animals. One group was kept as control, one as standard, and other as test groups. To the control group, 0.1% CMC solution was administered p.o; to the standard group, the standard drug was administered orally, and to the test group, test compounds were administered orally. After 60 min of the 0.1% CMC solution/standard drug/tested compound administration, 0.1 ml of 1% (v/v) acetic acid solution in distilled water was injected intraperitoneally in all the mice in each group including the control group. The writhing (a contraction of the abdomen, turning of trunk, and extension of hind limbs) was counted after 5 min of acetic acid administration and were counted for a period of 15 min. The percentage of analgesic activity was calculated using the following formula.
(Mean wriths of control—mean wriths of std./test) / mean wriths of control) × 100

[3] = 2 h, 2 h, read-out: % Age Inhibition of Rat Paw Edema, 2 H
[4] = 4 h, 4 h, read-out: % Age Inhibition of Rat Paw Edema, 4 H

Compound | melting point | inhibition in vivo at 10 mg/kg [1, 3] | inhibition in vivo at 10 mg/kg [1, 4] | anti-inflammatory activity (in words) [1] | Potency (anti-inflammatory) ([1]; 10 mg/kg) | inhibition in vivo at 10 mg/kg ([2]; oral dose 10 mg/kg, mean ± SEM) | Potency (analgesic) [2] | Mean with ± SEM ([2]; oral dose 10 mg/kg) | % Age Inhibition of Rat Paw Edema, 4 H ([1]; 4 h, 10 mg/kg) | anti-inflammatory activity (in words) ([1]; 10 mg/kg) | inhibition in vivo at 10 mg/kg ([2]; po) | analgesic activity (in words) ([2]; oral dose 10 mg/kg)
O=C1C(=NNc2nc(-c3cc4ccccc4oc3=O)cs2)c2ccccc2N1CNc1ccccc1 [Compound 4a, 3-{[4-(2-Oxo-2H-chromen-3-yl)-thiazol-2-yl]-hydrazono}-1-phenylaminomethyl-1,3-dihydro-indol-2-one] | 245 to 247 °C | 38.29 ± 0.016% | 5.57 ± 0.041% | negligible anti-inflammatory activity | 0.06 | 47.5 ± 0.707% | 0.64 | 17.00 ± 0.2582 | – | – | – | –
O=C1C(=NNc2nc(-c3cc4ccccc4oc3=O)cs2)c2ccccc2N1CNc1ccc(F)cc1 [Compound 4b, 1-[(4-Fluoro-phenylamino)-methyl]-3-{[4-(2-oxo-2H-chromen-3-yl)-thiazol-2-yl]-hydrazono}-1,3-dihydro-indol-2-one] | 242 to 244 °C | 59.3 ± 0.73% | 45.81 ± 0.069% | – | 0.55 | 25.9 ± 0.58% | 0.35 | 24.00 ± 0.3651 | – | – | – | –
O=C1C(=NNc2nc(-c3cc4ccccc4oc3=O)cs2)c2ccccc2N1CNc1ccc(Br)cc1 [Compound 4d, 1-[(4-Bromo-phenylamino)-methyl]-3-{[4-(2-oxo-2H-chromen-3-yl)-thiazol-2-yl]-hydrazono}-1,3-dihydro-indol-2-one] | 241 to 243 °C | 51.92 ± 0.337% | 6.98 ± 0.315% | negligible anti-inflammatory activity | 0.08 | 42.9 ± 0.71% | 0.58 | 18.50 ± 0.4282 | – | – | – | –
O=C1C(=NNc2nc(-c3cc4ccccc4oc3=O)cs2)c2ccccc2N1CNc1ccccc1[N+](=O)[O-] [Compound 4e, 1-[(2-Nitro-phenylamino)-methyl]-3-{[4-(2-oxo-2H-chromen-3-yl)-thiazol-2-yl]-hydrazono}-1,3-dihydro-indol-2-one] | 244 to 246 °C | 62.24 ± 0.08% | 48.6 ± 0.09% | – | 0.59 | 47.9 ± 1% | 0.65 | 16.88 ± 0.222 | – | – | – | –
O=C1C(=NNc2nc(-c3cc4ccccc4oc3=O)cs2)c2ccccc2N1CNc1ccc([N+](=O)[O-])cc1[N+](=O)[O-] [Compound 4g, 1-[(2,4-Dinitro-phenylamino)-methyl]-3-{[4-(2-oxo-2H-chromen-3-yl)-thiazol-2-yl]-hydrazono}-1,3-dihydro-indol-2-one] | 247 to 249 °C | 53.57 ± 0.16% | 77.9% | – | 0.94 | – | 0.51 | 20.09 ± 0.3561 | 77.94 ± 0.184 % | good anti-inflammatory activity; also recorded: significant anti-inflammatory activity | 38 ± 1% | –
O=C1C(=NNc2nc(-c3cc4ccccc4oc3=O)cs2)c2ccccc2N1CNn1cnnc1 [Compound 4h, 3-{[4-(2-Oxo-2H-chromen-3-yl)-thiazol-2-yl]-hydrazono}-1-([1,2,4]triazol-4-ylaminomethyl)-1,3-dihydro-indol-2-one] | 236 to 238 °C | 35.39 ± 0.273% | 64.69 ± 0.245% | – | 0.78 | 26.5 ± 0.317% | 0.35 | 23.83 ± 0.3073 | – | – | – | steep decrease in analgesic activity
O=C1C(=NNc2nc(-c3cc4ccccc4oc3=O)cs2)c2ccccc2N1CNc1ccncc1 [Compound 4j, 3-{[4-(2-Oxo-2H-chromen-3-yl)-thiazol-2-yl]-hydrazono}-1-(pyridine-4-ylaminomethyl)-1,3-dihydro-indol-2-one] | 237 to 239 °C | 53.81 ± 0.12% | 77.9% | – | 0.94 | 47.14 ± 0.402% | 0.64 | 17.13 ± 0.539 | – | good anti-inflammatory activity; also recorded: significant anti-inflammatory activity | – | –

Now from value to compound, other results behind:

melting point | Compound | inhibition in vivo at 10 mg/kg [1, 3] | inhibition in vivo at 10 mg/kg [1, 4] | anti-inflammatory activity (in words) [1] | Potency (anti-inflammatory) ([1]; 10 mg/kg) | inhibition in vivo at 10 mg/kg ([2]; oral dose 10 mg/kg, mean ± SEM) | Potency (analgesic) [2] | Mean with ± SEM ([2]; oral dose 10 mg/kg) | % Age Inhibition of Rat Paw Edema, 4 H ([1]; 4 h, 10 mg/kg) | anti-inflammatory activity (in words) ([1]; 10 mg/kg) | inhibition in vivo at 10 mg/kg ([2]; po) | analgesic activity (in words) ([2]; oral dose 10 mg/kg)
231 to 233 °C | O=C1C(=NNc2nc(-c3cc4ccccc4oc3=O)cs2)c2ccccc2N1CNc1cccnc1 [Compound 4k, 3-{[4-(2-Oxo-2H-chromen-3-yl)-thiazol-2-yl]-hydrazono}-1-(pyridine-3-ylaminomethyl)-1,3-dihydro-indol-2-one] | 38.09 ± 0.214% | 70.8% | significant anti-inflammatory activity | 0.86 | 7.96 ± 0.432% | 0.10 | 29.83 ± 0.3073 | 70.75 ± 0.165% | – | – | least analgesic activity
241 to 243 °C | O=C1C(=NNc2nc(-c3cc4ccccc4oc3=O)cs2)c2ccccc2N1CNc1ccc([N+](=O)[O-])cc1 [Compound 4l, 1-[(4-Nitro-phenylamino)-methyl]-3-{[4-(2-oxo-2H-chromen-3-yl)-thiazol-2-yl]-hydrazono}-1,3-dihydro-indol-2-one] | 54.76 ± 0.228% | 80.9% | – | 0.98 | 44.98 ± 0.336% | 0.61 | 17.83 ± 0.3079 | 80.94 ± 0.149 % | good anti-inflammatory activity; also recorded: highest anti-inflammatory activity | – | –
244 to 246 °C | Cc1ccc(NCN2C(=O)C(=NNc3nc(-c4cc5ccccc5oc4=O)cs3)c3ccccc32)cc1 [Compound 4m, 3-{[4-(2-Oxo-2H-chromen-3-yl)-thiazol-2-yl]-hydrazono}-1-(p-tolylamino-methyl)-1,3-dihydro-indol-2-one] | 53.27 ± 0.183% | 78.4% | – | 0.95 | 32.6 ± 0.845% | 0.44 | 21.83 ± 0.2051 | 78.42 ±0.183 % | good anti-inflammatory activity; also recorded: significant anti-inflammatory activity; also recorded: better anti-inflammatory activity | – | less analgesic activity
